The record followed here is patent US20200163913A1 (Shanghai Huali Biomedical Co., Ltd., priority 2017, published 2020).

The target of one data set is Arylsulfatase. Briefly: Arylsulfatase activity assay in vitro. In kind it is biochemical. The method, then: Weigh an appropriate amount of the test compound and dissolve it in dimethyl sulfoxide. Dilute it with Tris-HCl buffer for 2, 5, 10, 20, 50, 100, 200, 500, 1000, 2000, 5000, and 10,000 times. Add another dilution gradient to the sample. Arylsulfatase and potassium p-nitrophenyl sulfate are directly dissolved in Tris-HCl buffer. 40 μL of the test compound, 50 μL of arylsulfatase and 50 μL of potassium p-nitrobenzene sulfate were added to a 96-well plate for reaction. A blank control without enzymes and a standard control without test compounds are used. The volume is made up with Tris-HCl buffer. 405 nm detection in the microplate reader, each sample is measured for 40 times, and the interval is 30 s. The representative time node within the time period with good linearity of the absorbance value are selected for data analysis. The measured absorbance value are subtracted from the background value of the blank control and the initial value when the reaction time are 0. For comparison, calculate the inhibition rate at different concentrations, and use the built-in forecast function of excel to predict the IC50 value.

In a further data set the test system is Tubulin. Briefly: Tubulin polymerization activity test. The class given is biochemical. The following applies: tubulin 4.8 mg/ml, 37° C., 340 nm; read-out: IC50 (Table 3, tubulin polymerization test). The method, then: Tubulin (4.8 mg/ml) protein was mixed with the test compound in a PEM buffer (100 mM PIPES, 1 mM MgCl2 and 1 mM EGTA) containing 1 mM GTP and 5% glycerol. A SPECTRA MAX 190 (Molecular Device) spectrophotometer was used to monitor the microtubule polymerization at 37° C. by light scattering at 340 nm, and the microtubule polymerization was calculated from the absorbance value. Each sample was tested three times at ten different concentrations.

For data set [1], the system named is human cervical cancer cell HeLa. The data set can be described thus: CCK-8 cell proliferation inhibition, HeLa. The class given is cell-based. The method, then: (§1) Take more than 90% of live cells for experiments. Cell proliferation inhibition test uses EnoGeneCell™ Counting Kit-8 (CCK-8) cell viability detection kit. Cells are digested and counted to make a cell suspension with a concentration of 1×10^5 cells/mL, 100 μL of cell suspension (1×10^4 cells per well) was added to each well of a 96-well plate; Incubate in a 5% CO2 incubator for 24 hours; add 100 μL of the corresponding drug-containing culture medium to each well, and set a negative control group, a vehicle control group, and a positive control group, with 5 replicates in each group; place the 96-well plate at 37° C.

For data set [2], the system named is human lung cancer cell A549. Briefly: CCK-8 cell proliferation inhibition, A549. In kind it is cell-based. How it is done:
as §1

Data set [3] relates to human colon cancer cell HCT-116. The data set can be described thus: CCK-8 cell proliferation inhibition, HCT-116. In kind it is cell-based. How it is done: as §1
The subject of data set [4] is human liver cancer cell HepG2. The data set can be described thus: CCK-8 cell proliferation inhibition, HepG2. In kind it is cell-based. The following applies: read-out: IC50 HepG2. The method, then:
as §1

The test system of data set [5] is human gastric cancer cell MKN45. Briefly: CCK-8 cell proliferation inhibition, MKN45. The class given is cell-based. The following applies: read-out: IC50 MKN45. The method, then:
as §1

Data set [6] has as its system human gastric cancer cell MGC-803. Briefly: CCK-8 cell proliferation inhibition, MGC-803. The class given is cell-based. The following applies: read-out: IC50 MGC803. How it is done: as §1
The test system of another data set is sarcoma S180. The data set can be described thus: Tumor inhibition rate on sarcoma S180 mouse transplantation tumor. The class given is in vivo, mice. The following applies: for tumor observation: 8th day after administration; for Inhibition rate (tumor weight): dose 25 mg/kg, d0-d12 7 times, sacrifice day 14. The source says:
After 1 week of adaptation, the mice were inoculated subcutaneously with sarcoma S180 tumor tissue. After the tumor grew 100-300 mm3, the animals were randomly divided into groups.

A short description of data set [7]: Acute toxicity test of single intragastric administration of mice. Particulars: both sexes, Kunming, mouse, in vivo, po, 14 days observation. The method, then: Kunming mice (body weight: 17-22 g, male and female), randomly divided according to body weight. […] The doses were 150, 130, 120, 110, 100, 90, 80, 70, 60, 50, 40, 30 mg/kg by single intragastric administration, 0.25 h, 0.5 h, 1 h, 2 h after administration Observe once every 4 h, 24 h, and then record the mortality, then observe it once a day, record the mortality for 14 days, and sacrifice the undead mice on the 15th day for pathological dissection.

Where [8] appears, read: p-nitrophenyl sulfate substrate, 405 nm, read-out: IC50 sulfatase.
Where [9] appears, read: Homo sapiens, HeLa, 72 h, CCK-8, 72 h, read-out: IC50 Hela.
[10] abbreviates: Homo sapiens, HeLa, read-out: IC50 HeLa.
The mark [11] stands for this setting: A549, CCK-8, 72 h, read-out: IC50 A549.
Where [12] appears, read: Homo sapiens, HCT-116, 72 h, CCK-8, 72 h, read-out: IC50 HTC116.
[13] abbreviates: Homo sapiens, HCT-116, running text, read-out: IC50 HCT-116.
Where [14] appears, read: Homo sapiens, HepG2, 72 h, CCK-8, 72 h.
Where [15] appears, read: Homo sapiens, HepG2, running text.

Molecules are shown by their SMILES. Where two headings read alike, the source gives them in different places.

One may read the LD50 as the dose at which mortality reaches 50%. A high value points to lower toxicity. As usually defined, the melting point is the temperature, or range, at which the solid turns liquid.

For `C[C@]12CC[C@@H]3c4ccc(OS(N)(=O)=O)cc4CC[C@H]3[C@@H]1CCC2=O` [EMATE, 3-(sulfamoyloxy)-estr-1,3,5 (10)-triene-17-one, reference compound], the IC50 came out at 5010 nM on Arylsulfatase (setting [8]) and 25900 nM in the data set on Tubulin.

`COc1ccc(/C=C\c2cc(OC)c(OC)c(OC)c2)cc1OS(N)(=O)=O` [Compound A1-1, (Z)-3,4,5-trimethoxy-4′-methoxy-3′-sulfamate stilbene]: the IC50 in data set [1] (setting [9]) is 458 nM; in data set [1] (setting [10]), 340 nM; in [2] (setting [11]), 481 nM; in data set [2] (A549, read-out: IC50 A549) it was less than 500 nM; in [3] (setting [12]) it was 222 nM; in data set [3] (setting [13]) it was 222 nM. Further, the IC50 was 335 nM in data set [4] (setting [14]); less than 1000 nM in data set [4] (setting [15]); 599 nM in data set [5] (MKN-45, 72 h, CCK-8, 72 h); less than 600 nM in data set [5] (MKN-45, running text); 298 nM in data set [6] (MGC-803, 72 h, CCK-8, 72 h); less than 600 nM in [6] (MGC-803, running text). In addition, the IC50 is 6160 nM on Arylsulfatase (setting [8]) and 6600 nM in the data set on Tubulin. The tumor observation entry with sarcoma S180 is listed as “shrinking trend”. Moreover, in the data set on sarcoma S180, the “Inhibition rate (tumor weight)” value is listed as 42%. In [7], this compound showed an LD50 at 14 days of 106 mg/kg.

With `COc1cc(/C=C\c2cccc(OS(N)(=O)=O)c2)cc(OC)c1OC` [Compound A4-1, (Z)-3,4,5-trimethoxy-3′-sulfamate stilbene], the melting point fell in the range of 107.1 to 110.6 °C. Besides, in data set [1] (setting [9]), the IC50 is 16300 nM. Further, the IC50 in [2] (setting [11]) turned out to be 11000 nM. The IC50 in data set [3] (setting [12]) turned out to be 9500 nM. Also, in [4] (setting [14]), the IC50 stood at 9360 nM. In addition, the IC50 in [5] (MKN-45, 72 h, CCK-8, 72 h) amounted to 8530 nM. For the same compound, the IC50 in data set [6] (MGC-803, 72 h, CCK-8, 72 h) came to 15300 nM. Also, the IC50 on Arylsulfatase (setting [8]) was 470 nM. In addition, the IC50 on Arylsulfatase (read-out: sulfatase inhibitory activity) is less than 500 nM.

For the compound `COc1cc(/C=C\c2ccc(OC(F)F)c(OS(N)(=O)=O)c2)cc(OC)c1OC` [Compound A3-1, (Z)-3,4,5-trimethoxy-4′-difluoromethoxy-3′-sulfamate stilbene], the melting point fell in the range of 161.6 to 162.9 °C. For the same compound, the IC50 in data set [1] (Homo sapiens, HeLa, 72 h, read-out: IC50 Hela) amounted to 7820 nM. In data set [2] (A549, 72 h, read-out: IC50 A549), the IC50 was 5210 nM. The IC50 in data set [3] (Homo sapiens, HCT-116, 72 h, read-out: IC50 HTC116) was 9110 nM. The IC50 in data set [4] (Homo sapiens, HepG2, 72 h) was determined as 4800 nM. Further, the IC50 in data set [5] (MKN-45, 72 h) was 9000 nM. Moreover, the IC50 in data set [6] (MGC-803, 72 h) was determined as 12500 nM. The IC50 at Arylsulfatase (setting [8]) was 4640 nM. Also, the IC50 in the data set with Tubulin was determined as 1800 nM.

For the compound `CCOc1ccc(/C=C\c2cc(OC)c(OC)c(OC)c2)cc1OS(N)(=O)=O` [Compound A2-1, (Z)-3,4,5-trimethoxy-4′-ethoxy-3′-sulfamate stilbene], the IC50 in data set [1] (setting [9]) is 480 nM; in data set [1] (setting [10]), 480 nM; in data set [1] (listed as (Z)-3,4,5-trimethoxy-4′-ethoxy-3′-aminosulfamatestilbene, read-out: IC50 HeLa) it was less than 500 nM; in data set [2] (setting [11]), 229 nM; in data set [2] (A549, read-out: IC50 A549), less than 500 nM; in data set [3] (setting [12]) it was 446 nM. Further, the IC50 in data set [3] (setting [13]) was 446 nM; in data set [3] (listed as (Z)-3,4,5-trimethoxy-4′-ethoxy-3′-aminosulfamatestilbene, read-out: IC50 HCT-116), less than 500 nM; in data set [4] (setting [14]), 412 nM; in [4] (setting [15]), less than 1000 nM; in [4] (listed as (Z)-3,4,5-trimethoxy-4′-ethoxy-3′-aminosulfamatestilbene) it was less than 500 nM; in data set [5] (MKN-45, 72 h, CCK-8, 72 h) it was 325 nM. For the same compound, the IC50 in [5] (MKN-45, running text) is less than 500 nM; in data set [6] (MGC-803, 72 h, CCK-8, 72 h), 267 nM; in data set [6] (MGC-803, running text), less than 500 nM. Also, in the data set on sarcoma S180, the tumor observation result is listed as “shrinking trend”. Besides, in the data set with sarcoma S180, the “Inhibition rate (tumor weight)” value was 40%. For the same compound, the LD50 at 14 days in data set [7] was found to be 101 mg/kg.

Consider `COc1ccc(/C=C/c2cc(OC)c(OC)c(OC)c2)cc1OS(N)(=O)=O` [Compound A1-2, (E)-3,4,5-trimethoxy-4′-methoxy-3′-sulfamate stilbene], for which the IC50 in [1] (setting [9]) is 4500 nM; in data set [2] (setting [11]) it was 11400 nM; in data set [3] (setting [12]) it was 1570 nM; in data set [4] (setting [14]), 870 nM; in data set [4] (setting [15]), less than 1000 nM; in data set [5] (MKN-45, 72 h, CCK-8, 72 h) it was 10500 nM. Also, the IC50 turned out to be 2980 nM in [6] (MGC-803, 72 h, CCK-8, 72 h); 12900 nM on Arylsulfatase (setting [8]); 55700 nM with Tubulin.
